According to patent US10166237B2, “Compounds and methods for inducing chondrogenesis” (The Scripps Research Institute, priority 2011, dated 2019):

Key:
[1] = tested on: primary bovine chondrocytes; experiment: inhibition of cytokine-induced nitric oxide release (Greiss reaction); type: cell-based
Source text: (§1) In the screen, hMSCs were used as a surrogate to future targeting of the resident MSCs with the cartilage joint. It was in that setting upon which we identified PRO1. In a joint injury, the primary cell type a therapeutic would have contact with is the chondrocyte. Although cartilage or chondrocyte-targeted screening has not lead to the development of a successful drug modifying osteoarthritis drug (DMOAD) to date, it is believed that a stem cell-based therapeutic would protect and even repair the existing chondrocytes. Therefore, protection of the articular chondrocytes and cartilage from a mature bovine knee was assessed. PRO1 and its analogues were incubated with primary bovine chondrocytes or cartilage explants cultures grown in the presence of TNFα and oncostatin M to mimic the cytokine-induced damage that can occur during OA. In the presence of the cytokine cocktail, in vitro cultured primary chondrocytes released 4-5 fold more nitric oxide (NO) than the untreated chondrocytes (50 μM vs 10 μM) as measured by the Greiss reaction. In cells treated with the cytokine cocktail and PRO1, the small molecule could effectively block the release of NO by up to 70% FIG. 2C). Similarly, in ex vivo treated cartilage explants, cytokine-induced release of glycosaminoglycans (GAG) was reduced by up to 60% by PRO1 (FIG. 2D). Finally, hMSC were grown in pellet culture for 21 days.
Primary hMSCs were plated (10,000/well) in 384-well plates and cultured for 18 days. The cells were fixed with 4% formalin, permeabilized with triton (0.5%), digested with 0.5 mg/ml collagenase II to unwind the collagen fibrils, and then immunostained with an antibody recognizing type II collagen. DAPI (2 μg/ml) was added to visualize the nuclei. The chondrogenic nodules stained positive for type II collagen but lacked expression of type X collagen and osteocalcin, markers for chondrocyte hypertrophy and osteoblasts, respectively (not shown). 10,000 hMSCs (passages 3-5) were plated in Greiner 384-well low-bottom plates on day 1. The cells were allowed to adhere and stimulated for 48 hrs (days 2-3) with the indicated stimuli in MSC growth media (Millipore). The media was then removed and replaced with serum-free DMEM for an additional 16 days. This media was replenished on days 10 and 15 of the assay. Primary bovine chondrocytes were isolated from the articular surfaces from mature knees. After one week of culture, 8,500 cells were trypsinized and plated in Greiner 384-well white clear-bottom plates in growth media. […] 20 μl of the supernatant was mixed with 20 μl of the Greiss reagent and quantitated at 540 nm as described by the Promega kit instructions. Bovine cartilage explants (cut in circular explants in a 96 well plate) were cultured in the presence of 20 ng/ml TNFα and 10 ng/ml oncostatin M to induce GAG release for 72 hours (FIG. 2D). PRO1 was added at the indicated concentrations during the entire 72 hrs. […] Parafin sections were hydrated, incubated in low pH Antigen unmasking solution (Vector) at 90 C for 10 minutes, permeabilized with 0.1% collagenase II (only for the sections stained with type II collagen) for 10 minutes, blocked with CAS block for 10 minutes and then incubated with the primary antibody (type II collagen, aggrecan or Timp1) antibody (Abcam) overnight at 4 C. The antigens were visualized through standard ABC detection methods and developed with DAB. Representative of 3 sections stained/treatment group (independent experiments).

hMSC = experiment: type II collagen and aggrecan immunohistochemistry in hMSC pellet culture; type: cell-based, human; conditions: 21 days
Source text: as §1, with “In cells treated with the cytokine cocktail and PRO1, the small molecule could effectively block the release of NO by up to 70% FIG. 2C). Similarly, in ex vivo treated cartilage explants, cytokine-induced release of glycosaminoglycans (GAG) was reduced by up to 60% by PRO1 (FIG. 2D). Finally, hMSC were grown in pellet culture for 21 days.” left out
Primary hMSCs were plated (10,000/well) in 384-well plates and cultured for 18 days. […] 20 μl of the supernatant was mixed with 20 μl of the Greiss reagent and quantitated at 540 nm as described by the Promega kit instructions. […]

FLNA = target: T1, FLNA (Homo sapiens, UniProt P21333); experiment: photo-crosslinking of biotin-PRO1-azide in hMSCs, competition with PRO1, proteomics; type: binding
T1 construct: endogenous in cells; host or cells: hMSCs (primary human mesenchymal stem cells)
Method: To identify the interaction of PRO1 and FLNA, 5 μM biotin-PRO1-azide was added to hMSCs in the differentiation media in the absence or presence of a 50-fold molar excess of PRO1 and incubated for 30 min. 254-nm light was applied to the cells for another 30 min. Cells were lysed in lysis buffer (20 mM Tris-HCl, pH=7.4, 150 mM NaCl, 1 mM EDTA, 1 mM DTT, 0.5% v/v Triton X-100, protease inhibitor cocktail), passed through 26 1/2 gauge needles 20 times, and centrifuged at 12,000 rpm for 30 min. The supernatant was subjected to ammonium sulfate precipitation fractionation. Fractions were analyzed by Western blotting using an anti-biotin antibody (FIG. 6A). Fractions containing 20-40% ammonium sulfate were precipitated using trichloroacetic acid (TCA) and resuspended in isoelectric focusing sample buffer and subjected to 2D SDS-PAGE and Western blotting against biotin. Proteins specifically labeled by biotin-PRO1-azide were recognized, and the corresponding spots on a parallel gel visualized by silver staining were excised. These proteins were identified by mass spectrometry proteomics analysis. hMSCs were treated in monolayer or pellet culture (as indicated in FIG. 6B-6C) for 24-72 hrs. 15 μg of protein was separated by SDS-PAGE and hMSCs were fractionated (as indicated in FIG. 6B-6C) into cytosolic and nuclear fractions or monomeric and filamentous components as previously described.

FLNA/PEBP2β = target: T2, FLNA/PEBP2β (Homo sapiens, UniProt P21333); experiment: immunoprecipitation and Western blotting of FLNA/PEBP2β interaction in hMSCs; type: cell-based; conditions: 12 hr treatment
T2 construct: endogenous in cells; host or cells: hMSCs (primary human mesenchymal stem cells)
Method: hMSCs were treated with […] for 12 hr and lysed as above. 2 μg of anti-PEBP23 antibody was added to the cell lysate and incubated overnight at 4° C. prior to addition of agarose beads bearing immobilized protein A/G. After incubation of the lysate with the protein A/G beads for 1 hour, the beads were collected by centrifugation at 2,000 rpm and washed 3 times with lysis buffer. 30 μL of 2×SDS sample buffer was added to the beads and boiled for 5 min.

C57BL/10 mice = experiment: collagenase VII-induced knee joint damage; type: in vivo; conditions: 10 μM intra-articular on days 7 and 21
Method: IA injections of C57BL/10 mice with collagenase VII (12 U/knee) induced joint damage through digestion of the ligament of the knee. The mice were dosed intra-articularly on days 7 and 21 with 10 μM PRO1 or PBS. On day 56 the mice were euthanized for histopathological analyses. Parafin blocks were sectioned at 5 um and stained with Safranin O, and representative data was collected for the PBS- and PRO1-treated mice (FIG. 3A). The total medial tibial plateau joint score was determined by two blinded observers and averaged to represent the data shown here using the OARSI scoring system (FIG. 3B). Peripheral blood was collected from each mouse by retro-orbital bleeding on day 1, day 13 and day 56. The circulating COMP was determined by the Animal COMP ELISA kit according to the manufacturer's instructions (MDBioproducts, St Paul, Minn.). Pooled data, 10 mice/group (FIG. 3C).

human chondrocytes = experiment: proliferation of human chondrocytes; type: cell-based
hMSCs = experiment: toxicity in hMSCs; type: cell-based, human; conditions: 100 μM

T2 sequence (P21333 2-2647 limits assumed): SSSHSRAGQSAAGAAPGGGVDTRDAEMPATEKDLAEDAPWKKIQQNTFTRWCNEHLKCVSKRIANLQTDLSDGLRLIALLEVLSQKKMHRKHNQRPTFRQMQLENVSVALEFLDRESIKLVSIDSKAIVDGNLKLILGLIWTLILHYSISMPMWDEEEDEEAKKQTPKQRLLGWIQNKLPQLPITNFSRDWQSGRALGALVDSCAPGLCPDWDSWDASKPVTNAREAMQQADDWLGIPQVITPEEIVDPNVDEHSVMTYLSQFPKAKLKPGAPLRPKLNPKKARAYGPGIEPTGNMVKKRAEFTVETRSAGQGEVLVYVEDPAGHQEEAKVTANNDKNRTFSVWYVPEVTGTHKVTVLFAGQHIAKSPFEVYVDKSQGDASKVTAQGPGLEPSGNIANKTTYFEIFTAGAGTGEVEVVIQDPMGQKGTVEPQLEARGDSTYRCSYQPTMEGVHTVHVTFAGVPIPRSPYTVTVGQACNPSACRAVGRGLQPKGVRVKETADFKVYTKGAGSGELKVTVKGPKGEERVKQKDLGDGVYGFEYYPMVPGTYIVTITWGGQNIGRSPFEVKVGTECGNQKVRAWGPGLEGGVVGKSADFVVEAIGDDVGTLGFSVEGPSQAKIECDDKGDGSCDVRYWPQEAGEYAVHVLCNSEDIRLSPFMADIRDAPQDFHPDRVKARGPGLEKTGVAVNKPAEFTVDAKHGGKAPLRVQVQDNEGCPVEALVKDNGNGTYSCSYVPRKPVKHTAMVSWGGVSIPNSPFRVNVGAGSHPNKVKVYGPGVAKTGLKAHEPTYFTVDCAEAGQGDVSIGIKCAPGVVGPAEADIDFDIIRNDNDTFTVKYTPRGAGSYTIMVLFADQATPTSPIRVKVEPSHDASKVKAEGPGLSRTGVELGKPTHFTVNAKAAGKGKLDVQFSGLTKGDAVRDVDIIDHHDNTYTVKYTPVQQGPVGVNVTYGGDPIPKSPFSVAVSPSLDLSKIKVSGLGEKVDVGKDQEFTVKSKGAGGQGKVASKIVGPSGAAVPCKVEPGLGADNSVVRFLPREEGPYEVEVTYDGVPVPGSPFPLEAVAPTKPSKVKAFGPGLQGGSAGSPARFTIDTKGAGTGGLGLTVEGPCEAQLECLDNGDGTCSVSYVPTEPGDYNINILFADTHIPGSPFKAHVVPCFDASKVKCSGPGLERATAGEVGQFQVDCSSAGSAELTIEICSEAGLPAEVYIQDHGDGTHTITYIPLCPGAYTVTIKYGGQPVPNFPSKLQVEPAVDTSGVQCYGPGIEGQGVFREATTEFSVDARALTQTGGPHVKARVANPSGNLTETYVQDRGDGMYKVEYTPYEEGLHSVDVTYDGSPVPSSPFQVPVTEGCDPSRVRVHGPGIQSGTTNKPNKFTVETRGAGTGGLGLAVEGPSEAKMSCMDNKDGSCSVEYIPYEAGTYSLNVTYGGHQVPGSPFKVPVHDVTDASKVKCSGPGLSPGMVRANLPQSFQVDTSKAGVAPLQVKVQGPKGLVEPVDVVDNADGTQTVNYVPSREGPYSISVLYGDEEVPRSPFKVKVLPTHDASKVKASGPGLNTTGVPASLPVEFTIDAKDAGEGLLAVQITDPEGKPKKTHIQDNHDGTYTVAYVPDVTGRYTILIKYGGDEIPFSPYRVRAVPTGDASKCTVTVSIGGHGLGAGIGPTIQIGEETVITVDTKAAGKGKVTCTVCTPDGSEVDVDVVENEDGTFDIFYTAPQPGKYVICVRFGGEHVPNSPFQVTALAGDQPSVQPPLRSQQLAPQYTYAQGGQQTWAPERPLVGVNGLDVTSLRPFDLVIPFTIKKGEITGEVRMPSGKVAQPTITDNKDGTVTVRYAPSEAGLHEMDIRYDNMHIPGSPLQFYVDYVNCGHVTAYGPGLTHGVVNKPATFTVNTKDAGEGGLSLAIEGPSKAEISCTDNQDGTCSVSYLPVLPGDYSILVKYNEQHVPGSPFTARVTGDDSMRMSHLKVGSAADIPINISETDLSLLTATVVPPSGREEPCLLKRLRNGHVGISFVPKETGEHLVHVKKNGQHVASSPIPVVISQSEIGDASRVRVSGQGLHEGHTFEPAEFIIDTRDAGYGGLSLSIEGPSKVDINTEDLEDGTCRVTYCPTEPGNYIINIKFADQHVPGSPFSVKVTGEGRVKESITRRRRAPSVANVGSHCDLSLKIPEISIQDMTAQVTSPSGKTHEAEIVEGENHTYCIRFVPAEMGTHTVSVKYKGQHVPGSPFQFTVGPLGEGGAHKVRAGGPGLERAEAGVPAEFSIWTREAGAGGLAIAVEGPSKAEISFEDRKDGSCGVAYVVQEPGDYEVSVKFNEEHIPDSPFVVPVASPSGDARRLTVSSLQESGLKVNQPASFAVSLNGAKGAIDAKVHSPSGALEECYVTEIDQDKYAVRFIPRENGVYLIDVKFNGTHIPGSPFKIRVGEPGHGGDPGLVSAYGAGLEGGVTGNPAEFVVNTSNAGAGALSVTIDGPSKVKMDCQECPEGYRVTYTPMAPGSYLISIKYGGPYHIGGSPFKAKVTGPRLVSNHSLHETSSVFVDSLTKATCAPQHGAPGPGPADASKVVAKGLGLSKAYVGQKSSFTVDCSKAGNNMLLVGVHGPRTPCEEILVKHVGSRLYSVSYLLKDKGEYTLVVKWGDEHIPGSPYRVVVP

## O=C(O)c1ccccc1C(=O)Nc1ccc(-c2ccccc2)cc1 [AKT]
[1]; TNFα and oncostatin M cocktail, up to
  block of cytokine-induced release of NO: up to 70%
[1]; second value of the cell (after the slash), TNFα and oncostatin M, 48 hours, read-out: NO INHIBTION μM IC50
  IC50: 0.45 µM
hMSC
  type II collagen and aggrecan expression: increase type II collagen and aggrecan expression
FLNA
  interaction with FLNA: Interacts with FLNA
FLNA/PEBP2β
  protein interactions between FLNA and PEBP2β: Inhibits the Protein Interactions
C57BL/10 mice; ELISA
  circulating COMP levels: Reduced
C57BL/10 mice; day 56
  cartilage damage: Reduced Cartilage Damage
Human chondrocytes
  proliferative advantage: < 1.5 fold
In vivo; 0.05 mg/kg
  Tmax: 1 h
  bioavailability: ~22%
In vivo; 0.05 mg/kg, AUC0-inf
  AUC(0-inf): 0.342 µM·h
In vivo; 0.05 mg/kg, Cmax
  Cmax: ~100 nM
In vivo; 0.05 mg/kg, Plasma Conc.
  concentration at 1 h: 134 nM
In vivo; 0.05 mg/kg, T1/2
  half-life: ~120 min
In vivo; Plasma Conc.
  concentration at 1 h: 102 nM
  concentration at 3 h: 33.6 nM
  concentration at 7 h: 11.8 nM
hMSCs
  toxicity: No toxicity
